{
  "source": "patent US10966423B2",
  "about": "“Anti-microbial agent comprising xanthohumol and the use thereof in food products” (Purac Biochem B.V., priority 2015, dated 2021)",
  "type_in_all_cases": "cell-based",
  "key": {"[1]": {"system": "lactic acid bacteria (L. curvatus, 3×L. plantarum and L. mesenteroides)", "test": "shelf life of sausages inoculated with lactic acid bacteria", "procedure": "Sausages were produced according to the following procedure. The ingredients defined as weight percentages in Table 5 were used for the preparation of the sausage. Xanthoflav was used as such, without a preparation step such as applied in Example 1.\nFirst the meat was shredded, and salt, tri polyphosphate and half of the water was added. After mixing very well, the other ingredients were added. The meat dough was put in a cook crimp bag and vacuum sealed. After sealing the bags were canned. The sausages were cooked in a cooking cabinet for 120 minutes at 75° C. and afterwards cooled down to 15° C. […]\nIn a first step an inoculum was prepared as follows. Cultures of lactic acid bacteria (L. curvatus, 3×L. plantarum and L. mesenteroides) are started from plate and incubated overnight at 30° C. in screw-capped tubes (100×16 mm) containing 10 ml MRS broth.\nSausages were inoculated to a final level of about 1000 (10^3) CFU per g product. The sausage was inoculated with 1% Inoculum (approximately 5 ml Inoculum per 500 gram ground meat). […]\nFifty μl of the homogenate or dilution was subsequently plated on MRS agar using an Eddyjet type 1.23 spiral plater (IUL Instruments, Barcelona, Spain). […] The colonies were counted with the Acolyte Supercount automatic colony counter (Synoptics, Cambridge, UK) using the Synoptics software package. […]"}, "Penicillium roquefortii [2]": {"system": "Penicillium roquefortii", "test": "visible growth of mould hyphae in MEA broth", "settings": "MEA broth pH 3.5, 14 days, 25° C., 10^4 spores per ml; xanthohumol 0.008 wt %, propionate 0.085 wt %", "procedure": "(§1) Two molds, Aspergillus Niger and Penicillium roquefortii were tested on the combinatory effect of xanthohumol in combination with propionate. MEA broth was inoculated with spores of the fungi to a concentration of 10^4 spores per ml. In this example use has been made of the stock solution of xanthohumol as has been described in example 1 above. 4 ml of said stock solution was added to 96 ml of broth to obtain a 0.008% w/w solution in broth.\n(§2) Propionate was added to an end concentration of 0.085% of propionate in broth. Also a solution was made with 0.008% w/w of xanthohumol and 0.085% of propionate in broth. As a control experiment broth without antimicrobial components was used. The pH of all media was set to 3.5. After 14 days of incubation at 25° C., the broth was inspected for visible growth of mould hyphae."}, "Aspergillus Niger": {"system": "Aspergillus Niger", "test": "visible growth of mould hyphae in MEA broth", "settings": "MEA broth pH 3.5, 14 days, 25° C., 10^4 spores per ml; xanthohumol 0.008 wt %, propionate 0.085 wt %", "procedure": "as §1, §2"}, "Lactobacillus farciminis": {"system": "Lactobacillus farciminis", "test": "minimum inhibitory concentration on lactic acid bacteria, overnight in MRS medium", "settings": "Companilactobacillus farciminis, strain AR053, 30° C., 10^5 cfu/ml, read-out: MIC calculated to xanthohumol", "procedure": "(§3) One part xanthohumol Xantho-Flav Extract (with 2% of xanthohumol) on diatomaceous earth is incubated with 9 parts of hot water at 100° C., boiling for <1 minute while vigorously shaking. After incubation, solid material is discarded. This way, a stock solution with 10% of Xanthoflav or about 0.2% xanthohumol (2 mg/ml) is obtained, which is used in the following examples.\n(§4) For testing the anti-microbial activity a test composition comprising xanthohumol was applied. The test composition was prepared as follows. At the highest concentration 100 μl of the xanthohumol stock solution at 2 mg/ml in water (See Example 1) was added to 100 μl of 2 times concentrated MRS medium, providing a test composition comprising 1 mg/ml by weight xanthohumol in MRS medium.\n(§5) Pre-cultures of test bacteria were cultured using standard techniques. Bacteria were cultured in MRS medium 48 hrs before the start of the experiments.\n(§6) Five μl of the bacterium pre-cultures was brought in 200 μl of test medium (medium+component+water) and mixed with a concentration series of the test composition comprising xanthohumol. Final bacterium density at the start of the overnight experiment was 10^5 cfu/ml. Xanthohumol was tested up to a concentration of 0.01 mg/ml (based on an addition level of up to 0.05% w/w of Xanthoflav). Negative control was inoculated broth, positive control was inoculated MRS medium. Bacterium cultures were cultured overnight at 30° C., under constant shaking. After incubation, the minimum inhibitory concentration for each test organism was scored (Table 1)."}, "Lactobacillus plantarum [3]": {"system": "Lactobacillus plantarum", "test": "minimum inhibitory concentration on lactic acid bacteria, overnight in MRS medium", "settings": "Lactiplantibacillus plantarum, 10^5 cfu/ml, read-out: MIC calculated to xanthohumol", "procedure": "as §3, §4, §5, §6"}, "[4]": {"system": "Lactobacillus acidophilus", "test": "minimum inhibitory concentration on lactic acid bacteria, overnight in MRS medium", "settings": "DSM20079, strain DSM 20079, 30° C., 10^5 cfu/ml, read-out: MIC calculated to xanthohumol", "procedure": "as §3, §4, §5, §6"}, "[5]": {"system": "Leuconostoc mesenteroides", "test": "minimum inhibitory concentration on lactic acid bacteria, overnight in MRS medium", "settings": "strain AR049, 30° C., 10^5 cfu/ml, read-out: MIC calculated to xanthohumol", "procedure": "as §3, §4, §5, §6"}, "Lactobacillus brevis": {"system": "Lactobacillus brevis", "test": "minimum inhibitory concentration on lactic acid bacteria, overnight in MRS medium", "settings": "Levilactobacillus brevis, 10^5 cfu/ml, read-out: MIC calculated to xanthohumol", "procedure": "as §3, §4, §5, §6"}, "Lactobacilllus curvatus": {"system": "Lactobacilllus curvatus", "test": "minimum inhibitory concentration on lactic acid bacteria, overnight in MRS medium", "settings": "10^5 cfu/ml", "procedure": "as §3, §4, §5, §6"}, "Lactobacillus plantarum [6]": {"system": "Lactobacillus plantarum", "test": "growth of Lactobacillus plantarum in food products (baby food, pasta sauce)", "settings": "for Lactobacillus plantarum cell density: xanthohumol 0.004 mg/ml", "procedure": "In this example, the influence of xanthohumol on growth of Lactobacillus plantarum in baby food and in pasta sauce was assessed. For this purpose the baby food was sterilized and the pH was adjusted at pH 4.8, and the pasta sauce was sterilized and the pH was adjusted to pH 4.2. At time-point t=0, three samples of both the baby food and the pasta sauce were inoculated with a Lactobacillus plantarum starter culture, at a final Lactobacillus cell density of approximately 1*10^4 cells/ml. For the baby food and the pasta sauce, one sample each was inoculated in the presence of 0.2% by weight xanthohumol composition to a final concentration of xanthohumol in the food product of 0.004 mg/ml. Lactobacillus plantarum cell density was determined in the food products at t=0 and at t=24 hours."}, "Aspergillus flavus": {"system": "Aspergillus flavus", "test": "mold outgrowth (OD) in semi-solid MEA agar, xanthohumol/calcium propionate gradient", "settings": "FIG. 4; day 13, pH 6; calcium propionate 0-0.5%, xanthohumol 0-0.00195%", "procedure": "(§7) Five molds, Penicillium roquefortii, Aspergillus flavus, Fusarium oxysporum, Paecilomyces variotii, and Mucor plumbeus, were tested on the combinatory effect of xanthohumol combined with calcium propionate. In this example use has been made of a stock solution of 0.52% w/w XanthoFlav (equivalent to 0.0104% w/w xanthohumol) prepared in a similar manner as that described in example 1 above, as well as a stock solution of calcium propionate at 1.6% w/w. A modified semi-solid MEA agar was prepared by mixing 50 g of Malt Extract broth (Oxoid) with 7.5 g of Bacteriological Agar No. 1 (Oxoid) to create a 2× reduced agar MEA. This was autoclaved at 120° C. for 15 minutes. Bottles of this MEA were held at 50° C. until ready for inoculation, at which point they were inoculated with a single strain of the above listed molds at approximately 10^4 spores per ml. This level of inoculation ensures 500-1000 spores per well in the 96 well plate. All media was set to pH 6.\n(§8) The 2×MEA was mixed with the stock solutions of xanthohumol, calcium propionate, and sterilized H2O as a diluent in 96 well plates using an automated plate filler to create a concentration gradient of calcium propionate ranging from 0% to 0.5% along one axis and xanthohumol from 0% to 0.00195% along the other axis. Wells containing 0% of both antimicrobials served as a control. This allowed for testing approximately 24 different combinations of the two antimicrobials on one plate. Each well contained 75 μL of inoculated 2× reduced agar MEA, 75 μL of a mix of antimicrobials/diluent, and was capped with 75 μL of paraffin oil after the agar had set. Ninety-six well plates were then sealed with an oxygen permeable membrane to prevent contamination of wells.\n(§9) OD measurements were taken approximately once a day, and outgrowth (measured by an increase in OD) was tracked over time. Measurements at the final reading (day 13) were placed in a 3D graph to visualize the additive effects of the two antimicrobials as levels of each increased across the plate."}, "Paecilomyces variotii": {"system": "Paecilomyces variotii", "test": "mold outgrowth (OD) in semi-solid MEA agar, xanthohumol/calcium propionate gradient", "settings": "FIG. 3; day 13, pH 6; calcium propionate 0-0.5%, xanthohumol 0-0.00195%", "procedure": "as §7, §8, §9"}, "Mucor plumbeus": {"system": "Mucor plumbeus", "test": "mold outgrowth (OD) in semi-solid MEA agar, xanthohumol/calcium propionate gradient", "settings": "FIG. 5; day 13, pH 6; calcium propionate 0-0.5%, xanthohumol 0-0.00195%", "procedure": "as §7, §8, §9"}, "Fusarium oxysporum": {"system": "Fusarium oxysporum", "test": "mold outgrowth (OD) in semi-solid MEA agar, xanthohumol/calcium propionate gradient", "settings": "FIG. 2; day 13, pH 6; calcium propionate 0-0.5%, xanthohumol 0-0.00195%", "procedure": "as §7, §8, §9"}, "Penicillium roquefortii [7]": {"system": "Penicillium roquefortii", "test": "mold outgrowth (OD) in semi-solid MEA agar, xanthohumol/calcium propionate gradient", "settings": "FIG. 1; day 13, pH 6; calcium propionate 0-0.5%, xanthohumol 0-0.00195%", "procedure": "as §7, §8, §9"}},
  "note": "Where two headings read alike, the source gives them in different places.",
  "data": [
    {"smiles": "C[C@@H]1OC(=O)[C@H](C)OC1=O", "note": "[Nr 3: 0.8% Lactide, Lactide]", "values": [
      {"measurement": "Shelf life of sausages, Days till 10^7 cfu/g", "setting": "[1]; inoculated about 10^3 CFU per g, vacuum sealed, stored at 7° C., control 8.0", "value": 12.5, "unit": "Days"},
      {"measurement": "shelf life improvement as compared to the control", "setting": "[1]; sausages stored at 7° C.", "value": "about 4 days"}
    ]},
    {"smiles": "CCC(=O)O", "note": "[propionate, reference compound]", "values": [
      {"measurement": "visible growth of mould hyphae", "setting": "Penicillium roquefortii [2]", "value": "Growth"},
      {"measurement": "visible growth of mould hyphae", "setting": "Aspergillus Niger", "value": "Growth"}
    ]},
    {"smiles": "COc1cc(O)c(CC=C(C)C)c(O)c1C(=O)/C=C/c1ccc(O)cc1", "note": "[xanthohumol]", "values": [
      {"measurement": "MIC", "setting": "Lactobacillus farciminis", "value": 4, "unit": "µg/mL"},
      {"measurement": "MIC", "setting": "Lactobacillus plantarum [3]; DSM20174, strain DSM 20174, 30° C.", "value": 4, "unit": "µg/mL"},
      {"measurement": "MIC", "setting": "Lactobacillus plantarum [3]; strain AR052, 30° C.", "value": 2, "unit": "µg/mL"},
      {"measurement": "MIC", "setting": "[4]", "value": 10, "unit": "µg/mL"},
      {"measurement": "MIC", "setting": "[5]", "value": 2, "unit": "µg/mL"},
      {"measurement": "MIC", "setting": "Lactobacillus brevis; LMG6906, strain LMG 6906, 30° C.", "value": 2, "unit": "µg/mL"},
      {"measurement": "MIC", "setting": "Lactobacillus brevis; strain AR043, 30° C.", "value": 2, "unit": "µg/mL"},
      {"measurement": "MIC calculated to xanthohumol", "setting": "Lactobacilllus curvatus; strain AR095, 30° C.", "value": 10, "unit": "µg/mL"},
      {"measurement": "MIC", "setting": "Lactobacilllus curvatus; strain Zand 2, 30° C., read-out: MIC calculated to xanthohumol", "value": 10, "unit": "µg/mL"},
      {"measurement": "Lactobacillus plantarum cell density", "setting": "Lactobacillus plantarum [6]; baby food pH 4.8, 0 h", "value": "3.8 × 10^4"},
      {"measurement": "Lactobacillus plantarum cell density", "setting": "Lactobacillus plantarum [6]; baby food pH 4.8, 24 h, control 3 × 10^7", "value": "3 × 10^4"},
      {"measurement": "inhibitory effect on Lactobacillus plantarum", "setting": "Lactobacillus plantarum [6]; in baby food and pasta sauce", "value": "strong inhibitory effect"},
      {"measurement": "Lactobacillus plantarum cell density", "setting": "Lactobacillus plantarum [6]; pasta sauce pH 4.2, 0 h", "value": "3 × 10^4"},
      {"measurement": "Lactobacillus plantarum cell density", "setting": "Lactobacillus plantarum [6]; pasta sauce pH 4.2, 24 h, control 6 × 10^5", "value": "<100"},
      {"measurement": "Inhibition of A. flavus (outgrowth by OD)", "setting": "Aspergillus flavus", "value": "inhibiting effect by itself"},
      {"measurement": "Inhibition of P. variotii (outgrowth by OD)", "setting": "Paecilomyces variotii", "value": "inhibiting effect by itself"},
      {"measurement": "Inhibition of M plumbeus (outgrowth by OD)", "setting": "Mucor plumbeus", "value": "inhibiting effect by itself"},
      {"measurement": "Inhibition of F. oxysporum (outgrowth by OD)", "setting": "Fusarium oxysporum", "value": "inhibiting effect by itself"},
      {"measurement": "Inhibition of P. roquefortii (outgrowth by OD)", "setting": "Penicillium roquefortii [7]", "value": "inhibiting effect by itself"},
      {"measurement": "visible growth of mould hyphae", "setting": "Penicillium roquefortii [2]", "value": "Growth"},
      {"measurement": "visible growth of mould hyphae", "setting": "Aspergillus Niger", "value": "Growth"}
    ]}
  ]
}
